Numbering of substitutions follows the chain as printed.
Columns and labels:
DCIR-Fc [1] = biological target: T1, DCIR-Fc (Homo sapiens, UniProt Q9UMR7); assay: ELISA, biotinylated neoglycoconjugate on immobilized Fc protein; assay type: binding
T1 construct: gene CLEC4A; extracellular domain fused at C terminus to human IgG1 Fc (tag); produced in CHO or CHO Lec8 cells, protein A purified; 'residues 208-689' [sic]
T1 sequence (Q9UMR7 70-230): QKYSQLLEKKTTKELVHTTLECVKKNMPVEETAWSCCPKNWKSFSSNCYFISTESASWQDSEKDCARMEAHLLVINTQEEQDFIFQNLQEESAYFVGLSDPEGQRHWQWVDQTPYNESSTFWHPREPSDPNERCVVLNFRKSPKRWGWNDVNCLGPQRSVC

DCIR-Fc [2] = biological target: T2, DCIR-Fc (Homo sapiens, UniProt Q9UMR7, N185Q); assay: ELISA, soluble Fc protein on coated neoglycoconjugate; assay type: binding; details: 50 µg/ml Fc protein, room temperature; multivalent PAA conjugate; mutant lacks CRD N-glycan
T2 construct: gene CLEC4A; extracellular domain fused at C terminus to human IgG1 Fc (tag); produced in CHO or CHO Lec8 cells, protein A purified; 'residues 208-689' [sic]
T2 sequence (Q9UMR7 70-230 N185Q): T1 sequence (Q9UMR7 70-230) with N116Q

SMILES	ELISA, biotinylated neoglycoconjugate on immobilized Fc protein (DCIR-Fc [1]; pH 7.4, Ca2+/Mg2+, room temperature, labelled compound (multivalent biotinylated PAA conjugate), EGTA-sensitive)	ELISA, soluble Fc protein on coated neoglycoconjugate (DCIR-Fc [2])	ELISA, biotinylated neoglycoconjugate on immobilized Fc protein (DCIR-Fc [1]; labelled compound (multivalent biotinylated PAA conjugate, 5 µg/ml), EGTA control subtracted)
CC(=O)N[C@H]1C(O)O[C@H](CO)[C@@H](O[C@@H]2O[C@@H](C)[C@@H](O)[C@@H](O)[C@@H]2O)[C@@H]1O[C@@H]1O[C@H](CO)[C@H](O)[C@H](O)[C@H]1O[C@@H]1O[C@@H](C)[C@@H](O)[C@@H](O)[C@@H]1O (stereo partly drawn) [Lewis^b]	We observed CLR-specific binding of Man3 and Lewis^b to immobilized DCIR-Fc	strongly interacted with immobilized Lewis^b and Man3	
CC(=O)N[C@H]1C(O)O[C@H](CO)[C@@H](O[C@@H]2O[C@@H](C)[C@@H](O)[C@@H](O)[C@@H]2O)[C@@H]1O[C@@H]1O[C@H](CO)[C@H](O)[C@H](OS(=O)(=O)O)[C@H]1O (stereo partly drawn) [sulfo-Lewis^a]			immobilized glycosylated DCIR-Fc could interact with sulfo-Lewis^a

Source: publication PMC3679074, “Ligand Binding and Signaling of Dendritic Cell Immunoreceptor (DCIR) Is Modulated by the Glycosylation of the Carbohydrate Recognition Domain” (PLoS ONE, 2013)
